According to US9511068B2, “Composition for treating or preventing diseases caused by vascular permeability, containing imatinib or pharmaceutically acceptable salt thereof as active ingredient” (AJOU UNIVERSITY INDUSTRY - ACADEMIC COOPERATION FOUNDATION, priority 2012, dated 2016):
Counter-ions that a name gives are not always drawn.

System: retinal vascular permeability
Assay: Retinal vascular permeability (FITC-dextran leakage) in STZ-induced diabetic retinopathy rat models
Type: in vivo, Sprague Dawley (SD) rats
Conditions: STZ 200 mg/kg i.p. rats; retina treated with 50, 100 or 250 μg imatinib mesylate at the same time as STZ; observed after 2 weeks by fluorescence microscope
Procedure: Sprague Dawley (SD) rats were administered intraperitoneally with streptozotocin (STZ; Sigma) at a dose of 200 mg/kg (control group), or were injected with STZ while the retina of the animal models were treated with 50, 100 or 250 μg of imatinib mesylate (Novartis, Switzerland) (test groups).
Meanwhile, after the animal models (control and test groups) were housed for 2 weeks, the animal models were anesthetized, and fluorescein isothiocyanate (FITC)-labeled dextran was injected intracardiacally so that the fluorescent substance flowed along the blood vessels.

SMILES: Cc1ccc(NC(=O)c2ccc(CN3CCN(C)CC3)cc2)cc1Nc1nccc(-c2cccnc2)n1 [imatinib mesylate]
- leak degree of the fluorescent substance (FITC-labeled dextran) in the retina / vascular permeability: significantly reduced
